Patent US9040524B2, “Antifungal 5,6-dihydro-4H-pyrrolo[1,2-a][1,4]-benzodiazepines and 6H-pyrrolo[1,2-a][1,4]benzodiazepines substituted with bicycle benzene derivatives” (JANSSEN PHARMACEUTICA NV, priority 2010, dated 2015)

Key:
Scedosporium apiospermum = test: Antifungal activity in vitro, resazurin growth inhibition screen: Scedosporium apiospermum; assay type: cell-based; details: Scedosporium apiospermum IHEM3817; read-out: Inf. H pIC50 (converted)
Method: (§1) The standard susceptibility screen was performed in 96-well plates (U-bottom, Greiner Bio-One). Serial dilutions (2-fold or 4-fold) of 20 mM compound stock solutions were made in 100% DMSO, followed by an intermediate dilution step in water. These serial dilutions (10 μl) were then spotted onto test-plates that could be stored in the dark at 4° C. for a maximum period of 2 weeks. An adequate broad dose-range was included with 64 μM as the highest in-test concentration. […] The different fungal species/isolates (Table 3a) were cryopreserved and 1/1000 diluted in medium just prior to use. A standard inoculum of 200 μl containing 10^3 colony-forming unit (cfu) was then added to each well. A positive control (100% growth=fungal culture without antifungal) and a negative control (0% growth=RPMI-MOPS medium) were included on each plate.

Rhizopus oryzae = test: Antifungal activity in vitro, resazurin growth inhibition screen: Rhizopus oryzae; assay type: cell-based; details: Rhizopus arrhizus; Rhizopus oryzae IHEM5223; read-out: Inf. J pIC50 (converted)
Method: as §1

Cryptococcus neoformans = test: Antifungal activity in vitro, resazurin growth inhibition screen: Cryptococcus neoformans; assay type: cell-based; details: Cryptococcus neoformans B66663; read-out: Inf. F pIC50 (converted)
In short: (§2)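 Compounds were serially diluted 2- or 4-fold from DMSO stock with an intermediate water step, tested up to 64 μM final. Each well received 10^3 cfu of cryopreserved fungus in RPMI-MOPS medium. Resazurin served as the growth read-out, with drug-free culture as 100% growth and medium alone as 0%.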

Trichophyton rubrum = test: Antifungal activity in vitro, resazurin growth inhibition screen: Trichophyton rubrum; assay type: cell-based; details: Trichophyton rubrum B68183; read-out: Inf. C pIC50 (converted)
In short: as §2

Sporothrix schenkii = test: Antifungal activity in vitro, resazurin growth inhibition screen: Sporothrix schenkii; assay type: cell-based; details: Sporothrix schenkii B62482; read-out: Inf. A pIC50 (converted)
In short: as §2

Scedosporium prolificans = test: Antifungal activity in vitro, resazurin growth inhibition screen: Scedosporium prolificans; assay type: cell-based; details: Lomentospora prolificans; Scedosporium prolificans IHEM21157; read-out: Inf. I pIC50 (converted)
Method: as §1

Microsporum canis = test: Antifungal activity in vitro, resazurin growth inhibition screen: Microsporum canis; assay type: cell-based; details: Microsporum canis B68128; read-out: Inf. B pIC50 (converted)
In short: as §2

Candida parapsilosis = test: Antifungal activity in vitro, resazurin growth inhibition screen: Candida parapsilosis; assay type: cell-based; details: Lodderomyces parapsilosis; Candida parapsilosis B66126; read-out: Inf. D pIC50 (converted)
In short: as §2

[1] = test system: Trichophyton mentagrophytes; test: Antifungal activity in vitro, resazurin growth inhibition screen: Trichophyton mentagrophytes; assay type: cell-based; details: Trichophyton mentagrophytes B70554; read-out: Inf. G pIC50 (converted)
In short: as §2

Rhizomucor miehei = test: Antifungal activity in vitro, resazurin growth inhibition screen: Rhizomucor miehei; assay type: cell-based; details: Rhizomucor miehei IHEM13391; read-out: Inf. K pIC50 (converted)
Method: as §1

Aspergillus fumigatus = test: Antifungal activity in vitro, resazurin growth inhibition screen: Aspergillus fumigatus; assay type: cell-based; details: Aspergillus fumigatus B42928; read-out: Inf. E pIC50 (converted)
In short: as §2

| IC50 (Scedosporium apiospermum) [nM] | IC50 (Rhizopus oryzae) [nM] | IC50 (Cryptococcus neoformans) [nM] | IC50 (Trichophyton rubrum) [nM] | IC50 (Sporothrix schenkii) [nM] | IC50 (Scedosporium prolificans) [nM] | IC50 (Microsporum canis) [nM] | melting point [°C] | IC50 (Candida parapsilosis) [nM] | IC50 [1] [nM] | IC50 (Rhizomucor miehei) [nM] | IC50 (Aspergillus fumigatus) [nM] | Compound |
| --- | --- | --- | --- | --- | --- | --- | --- | --- | --- | --- | --- | --- |
| 56200 | > 64600 | > 64600 | 1150 | 9120 | 22400 | 1580 | 218.6 to 221 | 22400 | 5370 | > 64600 | 562 | Cn1c(=O)oc2ccc(C3=NCc4c(Cl)cccc4-n4cccc43)cc21 [Compound 80, 5-(7-chloro-6H-pyrrolo[1,2-a][1,4]benzodiazepin-4-yl)-3-methyl-2(3H)-benzoxazolone] |
| 5890 | 49000 | 417 | 204 | 2140 | 9330 | 166 | 209.8 to 210.7 | > 64600 | 324 | 6920 | 135 | O=C1CCCc2cc(C3=NCc4c(Cl)cccc4-n4cccc43)ccc21 [Compound 58, 6-(7-chloro-6H-pyrrolo[1,2-a][1,4]benzodiazepin-4-yl)-3,4-dihydro-1(2H)-naphthalenone] |
| 2820 | > 64600 | 50100 | 132 | 12900 | 1200 | 676 | 180.5 to 181.2 | 20900 | 240 | > 64600 | 2000 | Clc1cccc2c1CN=C(c1ccc3c(c1)OCC3)c1cccn1-2 [Compound 36, 7-chloro-4-(2,3-dihydro-6-benzofuranyl)-6H-pyrrolo[1,2-a][1,4]benzodiazepine] |
| 229 | 1200 | 95.5 | 123 | 1050 | 708 | 129 | 199.7 to 201.2 | 708 | 380 | 468 | 129 | FC1(F)CCc2cc(C3=NCc4c(Cl)cccc4-n4cccc43)ccc2O1 [Compound 69, 7-chloro-4-(2,2-difluoro-3,4-dihydro-2H-1-benzopyran-6-yl)-6H-pyrrolo[1,2-a]-[1,4]benzodiazepine] |
| 38900 | > 64600 | 5010 | 437 | 14100 | 1290 | 1000 | 206.4 to 208.9 | 2000 | 794 | 53700 | 2000 | Clc1cccc2c1CN=C(c1ccc3c(c1)CCO3)c1cccn1-2 [Compound 35, 7-chloro-4-(2,3-dihydro-5-benzofuranyl)-6H-pyrrolo[1,2-a][1,4]benzodiazepine] |
| 32400 | > 64600 | 1000 | 331 | 3020 | 6170 | 257 | 190 to 191.8 | 7940 | 331 | > 64600 | 1000 | Clc1cc(Cl)c2c(c1)-n1cccc1C(c1ccc3c(c1)CCO3)=NC2 [Compound 45, 7,9-dichloro-4-(2,3-dihydro-5-benzofuranyl)-6H-pyrrolo[1,2-a][1,4]benzodiazepine] |

| Compound | IC50 (Scedosporium apiospermum) [nM] | IC50 (Rhizopus oryzae) [nM] | IC50 (Cryptococcus neoformans) [nM] | IC50 (Trichophyton rubrum) [nM] | IC50 (Sporothrix schenkii) [nM] | IC50 (Scedosporium prolificans) [nM] | IC50 (Microsporum canis) [nM] | melting point [°C] | IC50 (Candida parapsilosis) [nM] | IC50 [1] [nM] | IC50 (Rhizomucor miehei) [nM] | IC50 (Aspergillus fumigatus) [nM] |
| --- | --- | --- | --- | --- | --- | --- | --- | --- | --- | --- | --- | --- |
| Cl.Clc1cccc2c1CNC(c1ccc3c(c1)CCC3)c1cccn1-2 (stereo not drawn) [Compound 12, 7-chloro-4-(2,3-dihydro-1H-inden-5-yl)-5,6-dihydro-4H-pyrrolo[1,2-a][1,4]benzo-diazepine .HCl] | > 64600 | > 64600 | 3020 | 138 | 64600 | > 64600 | 380 | 242.7 to 243.5 | 575 | 58.9 | > 64600 | 151 |
